Results on 24 molecules are retold here after patent US8258134B2, “Pyridazinone glucokinase activators” (Hoffmann-La Roche Inc., priority 2008, dated 2012).

Each structure is given as a SMILES string.

The target of the first assay is T1, Recombinant human liver GK1 (GST-GK) (Homo sapiens, UniProt P35557).
T1 construct: made in house; host or cells: E. coli
T1 sequence (P35557 1-466 isoform P35557-2): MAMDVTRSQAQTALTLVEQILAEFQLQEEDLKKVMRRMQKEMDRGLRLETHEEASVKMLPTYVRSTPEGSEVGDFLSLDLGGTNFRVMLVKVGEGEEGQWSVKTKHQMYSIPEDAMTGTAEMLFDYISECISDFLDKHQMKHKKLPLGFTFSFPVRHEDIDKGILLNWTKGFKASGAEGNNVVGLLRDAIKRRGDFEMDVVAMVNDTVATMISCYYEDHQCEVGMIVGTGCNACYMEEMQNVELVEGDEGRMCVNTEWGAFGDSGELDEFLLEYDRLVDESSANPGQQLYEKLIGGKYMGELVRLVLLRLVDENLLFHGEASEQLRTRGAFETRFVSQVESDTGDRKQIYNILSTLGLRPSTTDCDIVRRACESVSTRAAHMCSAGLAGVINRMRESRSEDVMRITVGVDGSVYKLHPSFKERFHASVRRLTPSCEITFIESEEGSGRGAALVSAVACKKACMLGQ
The experiment in a line: Glucokinase in vitro assay (G6PDH-coupled NADH generation, OD340). It is filed as biochemical. As to conditions: 30 uM test compound, 5 mM D-glucose. The method, boiled down: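 Activation readout is SC1.5, the activator concentration raising GK rate (OD340/min) 50% above 10% DMSO controls. The coupled reaction used GST-GK1 from E. coli, 5 mM glucose, 1 mM ATP, 1.8 mM NAD and 25 mM Hepes pH 7.1 at 30° C. Enzyme was added after a 10 min compound pre-incubation.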
`Cn1ccc(NC(=O)C(CC2CCCC2)n2ncccc2=O)n1` (stereo not shown) [Example 82, 3-Cyclopentyl-N-(1-methyl-1H-pyrazol-3-yl)-2-(6-oxo-6H-pyridazin-1-yl)-propionamide]: the “fold activation @ 30 uM” value is on record as 1.3 fold.

Take `Cn1ccc(NC(=O)C(CC2CCCC2)n2nc(Oc3ccccc3)ccc2=O)n1` (stereo not shown) [Example 85, 3-cyclopentyl-N-(1-methyl-1H-pyrazol-3-yl)-2-(6-oxo-3-phenoxy-6H-pyridazin-1-yl)-propionamide]: the “fold activation @ 30 uM” value came out at 1.3 fold.

As to `CC1CCCC(C)C1Oc1cnn(C(CC2CCCC2)C(=O)Nc2ccn(C[C@@H](O)CO)n2)c(=O)c1` (stereo partly drawn) [Example 91, 3-Cyclopentyl-N-[1-((R)-2,3-dihydroxy-propyl)-1H-pyrazol-3-yl]-2-[4-(2,6-dimethyl-cyclohexyloxy)-6-oxo-6H-pyridazin-1-yl]-propionamide], the “fold activation @ 30 uM” value amounted to 1.28 fold.

For the molecule `O=C(Nc1ccn(C[C@@H](O)CO)n1)C(CC1CCCC1)n1ncc(OC2CCC2)cc1=O` (stereo partly drawn) [Example 94, 2-(4-Cyclobutoxy-6-oxo-6H-pyridazin-1-yl)-3-cyclopentyl-N-[1-((R)-2,3-dihydroxy-propyl)-1H-pyrazol-3-yl]-propionamide], the “fold activation @ 30 uM” value is given as 1.33 fold.

Still in this assay, the particulars now being: 5 mM D-glucose, 30° C., pH 7.1, 10% DMSO.
Take `O=C(Nc1cnccn1)C(CC1CCCC1)n1ncc(Oc2ccccc2C(F)(F)F)cc1=O` (stereo not shown) [Example 76, 3-Cyclopentyl-2-[6-oxo-4-(2-trifluoromethyl-phenoxy)-6H-pyridazin-1-yl]-N-pyrazin-2-yl-propionamide]: the “SC1.5 average (concentration of activator that produced a 50% increase in the activity of GK)” value worked out at 0.376 µM.

For the molecule `CN(c1ccccc1)c1cnn(C(CC2CCCC2)C(=O)Nc2ccn(CC(C)(C)O)n2)c(=O)c1` (stereo not shown) [Example 77, 3-Cyclopentyl-N-[1-(2-hydroxy-2-methyl-propyl)-1H-pyrazol-3-yl]-2-[4-(methyl-phenyl-amino)-6-oxo-6H-pyridazin-1-yl]-propionamide], the “SC1.5 average (concentration of activator that produced a 50% increase in the activity of GK)” value is 21.07 µM.

With `CC(C)(O)Cn1ccc(NC(=O)C(CC2CCCC2)n2ncccc2=O)n1` (stereo not shown) [Example 78, 3-Cyclopentyl-N-[1-(2-hydroxy-2-methyl-propyl)-1H-pyrazol-3-yl]-2-(6-oxo-6H-pyridazin-1-yl)-propionamide], the “SC1.5 average (concentration of activator that produced a 50% increase in the activity of GK)” value was determined as 14.436 µM.

For `O=C(Nc1nccs1)C(CC1CCCC1)n1ncccc1=O` (stereo not shown) [Example 79, 3-Cyclopentyl-2-(6-oxo-6H-pyridazin-1-yl)-N-thiazol-2-yl-propionamide], the “SC1.5 average (concentration of activator that produced a 50% increase in the activity of GK)” value amounted to 14.605 µM.

`COc1cnn(C(CC2CCCC2)C(=O)Nc2nccs2)c(=O)c1` (stereo not shown) [Example 80, 3-Cyclopentyl-2-(4-methoxy-6-oxo-6H-pyridazin-1-yl)-N-thiazol-2-yl-propionamide]: the “SC1.5 average (concentration of activator that produced a 50% increase in the activity of GK)” value amounted to 3.208 µM.

Take `Cn1ccc(NC(=O)C(CC2CCCC2)n2ncccc2=O)n1` (stereo not shown) [Example 82, 3-Cyclopentyl-N-(1-methyl-1H-pyrazol-3-yl)-2-(6-oxo-6H-pyridazin-1-yl)-propionamide]: the “SC1.5 average (concentration of activator that produced a 50% increase in the activity of GK)” value was > 30 µM.

With `O=C(Nc1nccs1)C(CC1CCCC1)n1ncc2ccccc2c1=O` (stereo not shown) [Example 83, 3-Cyclopentyl-2-(1-oxo-1H-phthalazin-2-yl)-N-thiazol-2-yl-propionamide], the “SC1.5 average (concentration of activator that produced a 50% increase in the activity of GK)” value amounted to 8.783 µM.

For the molecule `CC(C)(O)Cn1ccc(NC(=O)C(CC2CCCC2)n2ncc3ccccc3c2=O)n1` (stereo not shown) [Example 84, 3-Cyclopentyl-N-[1-(2-hydroxy-2-methyl-propyl)-1H-pyrazol-3-yl]-2-(1-oxo-1H-phthalazin-2-yl)-propionamide], the “SC1.5 average (concentration of activator that produced a 50% increase in the activity of GK)” value worked out at 15.983 µM.

`Cn1ccc(NC(=O)C(CC2CCCC2)n2nc(Oc3ccccc3)ccc2=O)n1` (stereo not shown) [Example 85, 3-cyclopentyl-N-(1-methyl-1H-pyrazol-3-yl)-2-(6-oxo-3-phenoxy-6H-pyridazin-1-yl)-propionamide]: the “SC1.5 average (concentration of activator that produced a 50% increase in the activity of GK)” value is > 30 µM.

For the molecule `Cc1ccc(C)c(Oc2cnn(C(CC3CCCC3)C(=O)Nc3ccn(CC(C)(C)O)n3)c(=O)c2)c1C` (stereo not shown) [Example 88, 3-Cyclopentyl-N-[1-(2-hydroxy-2-methyl-propyl)-1H-pyrazol-3-yl]-2-[6-oxo-4-(2,3,6-trimethyl-phenoxy)-6H-pyridazin-1-yl]-propionamide], the “SC1.5 average (concentration of activator that produced a 50% increase in the activity of GK)” value is 0.204 µM.

For the molecule `CC(C)(O)Cn1ccc(NC(=O)C(CC2CCCC2)n2ncc(Oc3cccc4c3OC(C)(C)C4)cc2=O)n1` (stereo not shown) [Example 89, 3-Cyclopentyl-2-[4-(2,2-dimethyl-2,3-dihydro-benzofuran-7-yloxy)-6-oxo-6H-pyridazin-1-yl]-N-[1-(2-hydroxy-2-methyl-propyl)-1H-pyrazol-3-yl]-propionamide], the “SC1.5 average (concentration of activator that produced a 50% increase in the activity of GK)” value was found to be 0.568 µM.

For the molecule `CC(C)(O)Cn1ccc(NC(=O)C(CC2CCCC2)n2ncc(Oc3ccccc3C(C)(C)C)cc2=O)n1` (stereo not shown) [Example 90, 2-[4-(2-tert-Butyl-phenoxy)-6-oxo-6H-pyridazin-1-yl]-3-cyclopentyl-N-[1-(2-hydroxy-2-methyl-propyl)-1H-pyrazol-3-yl]-propionamide], the “SC1.5 average (concentration of activator that produced a 50% increase in the activity of GK)” value came out at 0.5 µM.

Take `CC1CCCC(C)C1Oc1cnn(C(CC2CCCC2)C(=O)Nc2ccn(C[C@@H](O)CO)n2)c(=O)c1` (stereo partly drawn) [Example 91, 3-Cyclopentyl-N-[1-((R)-2,3-dihydroxy-propyl)-1H-pyrazol-3-yl]-2-[4-(2,6-dimethyl-cyclohexyloxy)-6-oxo-6H-pyridazin-1-yl]-propionamide]: the “SC1.5 average (concentration of activator that produced a 50% increase in the activity of GK)” value is > 30 µM.

As to `O=C(Nc1ccn(C[C@@H](O)CO)n1)C(CC1CCCC1)n1ncc(Oc2cccc(Cl)c2Cl)cc1=O` (stereo partly drawn) [Example 92, 3-Cyclopentyl-2-[4-(2,3-dichloro-phenoxy)-6-oxo-6H-pyridazin-1-yl]-N-[1-((R)-2,3-dihydroxy-propyl)-1H-pyrazol-3-yl]-propionamide], the “SC1.5 average (concentration of activator that produced a 50% increase in the activity of GK)” value worked out at 0.135 µM.

Regarding `Cc1ccc(Oc2cnn(C(CC3CCCC3)C(=O)Nc3ccn(C[C@@H](O)CO)n3)c(=O)c2)c2c1CCC2` (stereo partly drawn) [Example 93, 3-Cyclopentyl-N-[1-((R)-2,3-dihydroxy-propyl)-1H-pyrazol-3-yl]-2-[4-(7-methyl-indan-4-yloxy)-6-oxo-6H-pyridazin-1-yl]-propionamide], the “SC1.5 average (concentration of activator that produced a 50% increase in the activity of GK)” value turned out to be 0.114 µM.

Consider `O=C(Nc1ccn(C[C@@H](O)CO)n1)C(CC1CCCC1)n1ncc(OC2CCC2)cc1=O` (stereo partly drawn) [Example 94, 2-(4-Cyclobutoxy-6-oxo-6H-pyridazin-1-yl)-3-cyclopentyl-N-[1-((R)-2,3-dihydroxy-propyl)-1H-pyrazol-3-yl]-propionamide], for which the “SC1.5 average (concentration of activator that produced a 50% increase in the activity of GK)” value is > 30 µM.

As to `O=C(Nc1ccn(C[C@@H](O)CO)n1)C(CC1CCCC1)n1ncc(Oc2ncccc2F)cc1=O` (stereo partly drawn) [Example 95, 3-Cyclopentyl-N-[1-((R)-2,3-dihydroxy-propyl)-1H-pyrazol-3-yl]-2-[4-(3-fluoro-pyridin-2-yloxy)-6-oxo-6H-pyridazin-1-yl]-propionamide], the “SC1.5 average (concentration of activator that produced a 50% increase in the activity of GK)” value stood at 12.633 µM.

On to `O=C(Nc1ccn(C[C@@H](O)CO)n1)C(CC1CCCC1)n1ncc(Oc2cccc3[nH]ccc23)cc1=O` (stereo partly drawn) [Example 96, 3-Cyclopentyl-N-[1-((R)-2,3-dihydroxy-propyl)-1H-pyrazol-3-yl]-2-[4-(1H-indol-4-yloxy)-6-oxo-6H-pyridazin-1-yl]-propionamide], for which the “SC1.5 average (concentration of activator that produced a 50% increase in the activity of GK)” value was 0.067 µM.

Turning to `Cc1occc(=O)c1Oc1cnn(C(CC2CCCC2)C(=O)Nc2ccn(C[C@@H](O)CO)n2)c(=O)c1` (stereo partly drawn) [Example 97, 3-Cyclopentyl-N-[1-((R)-2,3-dihydroxy-propyl)-1H-pyrazol-3-yl]-2-[4-(2-methyl-4-oxo-4H-pyran-3-yloxy)-6-oxo-6H-pyridazin-1-yl]-propionamide], the “SC1.5 average (concentration of activator that produced a 50% increase in the activity of GK)” value was 1.895 µM.

For `O=C(Nc1ccn(C[C@@H](O)CO)n1)C(CC1CCCC1)n1ncc(Oc2ccccc2OC(F)(F)F)cc1=O` (stereo partly drawn) [Example 98, 3-Cyclopentyl-N-[1-((R)-2,3-dihydroxy-propyl)-1H-pyrazol-3-yl]-2-[6-oxo-4-(2-trifluoromethoxy-phenoxy)-6H-pyridazin-1-yl]-propionamide], the “SC1.5 average (concentration of activator that produced a 50% increase in the activity of GK)” value was 0.244 µM.

In the case of `Cc1cccc(Oc2cnn(C(CC3CCCC3)C(=O)Nc3ccn(C[C@@H](O)CO)n3)c(=O)c2)n1` (stereo partly drawn) [Example 99, 3-Cyclopentyl-N-[1-((R)-2,3-dihydroxy-propyl)-1H-pyrazol-3-yl]-2-[4-(6-methyl-pyridin-2-yloxy)-6-oxo-6H-pyridazin-1-yl]-propionamide], the “SC1.5 average (concentration of activator that produced a 50% increase in the activity of GK)” value turned out to be 1.277 µM.

Consider `Cc1ccc(F)c(Oc2cnn(C(CC3CCCC3)C(=O)Nc3ccn(C[C@@H](O)CO)n3)c(=O)c2)c1` (stereo partly drawn) [Example 100, 3-Cyclopentyl-N-[1-((R)-2,3-dihydroxy-propyl)-1H-pyrazol-3-yl]-2-[4-(2-fluoro-5-methyl-phenoxy)-6-oxo-6H-pyridazin-1-yl]-propionamide], for which the “SC1.5 average (concentration of activator that produced a 50% increase in the activity of GK)” value came to 0.101 µM.

Take `O=C(Nc1ccn(C[C@@H](O)CO)n1)C(CC1CCCC1)n1ncc(Oc2ccccc2CCO)cc1=O` (stereo partly drawn) [Example 101, 3-Cyclopentyl-N-[1-((R)-2,3-dihydroxy-propyl)-1H-pyrazol-3-yl]-2-{4-[2-(2-hydroxy-ethyl)-phenoxy]-6-oxo-6H-pyridazin-1-yl}-propionamide]: the “SC1.5 average (concentration of activator that produced a 50% increase in the activity of GK)” value was determined as 0.732 µM.

On to `Cc1cc(C)nc(Oc2cnn(C(CC3CCCC3)C(=O)Nc3ccn(C[C@@H](O)CO)n3)c(=O)c2)n1` (stereo partly drawn) [Example 102, 3-Cyclopentyl-N-[1-((R)-2,3-dihydroxy-propyl)-1H-pyrazol-3-yl]-2-[4-(4,6-dimethyl-pyrimidin-2-yloxy)-6-oxo-6H-pyridazin-1-yl]-propionamide], for which the “SC1.5 average (concentration of activator that produced a 50% increase in the activity of GK)” value stood at 0.56 µM.
